Measured values published in patent US12275721B2, “Indazole carboxamides as kinase inhibitors” (BRISTOL-MYERS SQUIBB COMPANY, priority 2019, dated 2025).

How the values were obtained:
[1] = target: T1, His-GST-TVMV-hRIPK1(1-324) (Homo sapiens, UniProt Q13546); assay: RIPK1 HTRF Binding Assay; conditions: HTRF probe displacement, 1 h at rt
T1 construct: 1 nM His-GST-TVMV-hRIPK1(1-324) in FRET Buffer; made in house; host or cells: Spodoptera frugiperda (Sf9) insect cells, baculovirus (Bac-to-Bac)
T1 sequence (Q13546 1-324): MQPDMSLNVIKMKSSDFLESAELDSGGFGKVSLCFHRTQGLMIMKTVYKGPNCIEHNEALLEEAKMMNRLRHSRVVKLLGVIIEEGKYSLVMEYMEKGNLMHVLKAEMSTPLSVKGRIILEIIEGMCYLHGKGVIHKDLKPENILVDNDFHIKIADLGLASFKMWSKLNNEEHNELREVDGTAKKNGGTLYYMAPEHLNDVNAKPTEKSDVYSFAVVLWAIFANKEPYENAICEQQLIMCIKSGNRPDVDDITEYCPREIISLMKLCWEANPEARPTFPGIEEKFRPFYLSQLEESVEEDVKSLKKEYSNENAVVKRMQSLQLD
Method: A solution was prepared containing 0.2 nM Anti GST-Tb (Cisbio, 61GSTTLB), 90.6 nM probe and 1 nM His-GST-TVMV-hRIPK1(1-324) in FRET Buffer (20 mM HEPES, 10 mM MgCl2, 0.015% Brij-35, 4 mM DTT, 0.05 mg/mL BSA). Using Formulatrix Tempest, the detection antibody/enzyme/probe solution ([…]) was dispensed into wells of a 1536 plate (Black Low Binding Polystyrene 1536 Plate (Corning, 3724)) containing 10 nL of compounds of interest at appropriate concentration in DMSO. The plate was incubated at rt for 1 h. FRET was measured using the EnVision plate reader (Excitation: 340 nm, Emission: 520 nm/[…]). Total signal (0% inhibition) was calculated from wells containing 10 nL DMSO only.
Cloning and Baculovirus Expression of RIPK1 Construct
The coding region of human RIPK1(1-324) flanked by NdeI site at 5′ end and stop codon TGA and XhoI site at 3′ end was codon optimized and gene synthesized at GenScript USA Inc. (Piscataway, NJ) and subcloned into a modified pFastBac1 vector (Invitrogen, Carlsbad, CA) with N-terminal His-GST-TVMV tag, to generate His-GST TVMV-hRIPK1(1-324)-pFB. The fidelity of the synthetic fragment was confirmed by sequencing. Baculovirus was generated for the construct using the Bac-to-Bac baculovirus expression system (Invitrogen) according to the manufacturer's protocol. Briefly, recombinant bacmid was isolated from transformed DH10Bac E. coli competent cells 20 (Invitrogen) and used to transfect Spodoptera frugiperda (Sf9) insect cells (Invitrogen). Baculovirus was harvested 72 hours post transfection and a virus stock was prepared by infecting fresh Sf9 cells at a 1/1000 (v/v) ratio for 66 hours. For large scale protein production, Sf9 cells (Expression System, Davis, CA) grown in ESF921 insect medium (Expression System) at 2×10^6 cells/ml were infected with virus stock at a 1/100 (v/v) ratio for 66 hours. The production was carried out either at a 10 L scale in a 22 L cellbag (GE Healthcare Bioscience, Pittsburgh, PA) or at a 20 L scale in a 50 L cellbag using WAVE-Bioreactor System 20/50 (GE Healthcare Bioscience). The infected cells were harvested by centrifugation at 2000 rpm for 20 min at 4° C. in a SORVALL® RC12BP centrifuge. The cell pellets was stored at −70° C. before protein was purified.
Purification of His-GST-TVMV-hRIPK1(1-324)
RIPK1 containing cell paste was resuspended in 50 mM Tris pH 7.5, 150 mM NaCl, 10 mM imidazole, 5% glycerol, 5 mM MgSO4, 1 mM TCEP, 25 U/ml Benzonase, and Complete Protease Inhibitor tablets (1/50 ml, Roche Diagnostics, Indianapolis, IN). The cells were lysed by nitrogen cavitation using an unstirred pressure vessel @ 525 PSI (Parr Instrument Company, Moline, IL). The suspension was clarified by centrifugation at 136,000×g for 40 min, at 4° C. The lysate was decanted from the pellet and passed through a 5 ml NiNTA Superflow cartridge (Qiagen, Valencia, CA) using an AKTA Pure (GE Healthcare). Column was eluted with 10 CV linear gradient into 50 mM Tris 7.5, 150 mM NaCl, 500 mM imidazole, 5% glycerol, 1 mM TCEP. Peak fractions were pooled and loaded directly onto 5 ml GSTrap 4B column (GE Healthcare). Column was washed with 50 mM Tris 7.0, 150 mM NaCl, […], 1 mM DTT and eluted in 10 CV linear gradient into 50 mM Tris 8.0, 150 mM NaCl, 20 mM reduced glutathione, 50% glycerol, 1 mM DTT. Fractions identified by SDS-PAGE as containing RIPK1 were pooled and concentrated using 30 kDa MWCO spin concentrators (Amicon Ultra-15, Millipore, Billerica, MA) and loaded onto a HiLoad 26/600 Superdex 200 column (GE Healthcare) equilibrated in 25 mM Tris 7.5, 150 mM NaCl, 2 mM TCEP, […]. The RTPK1 protein eluted as a dimer off the SEC column. The yield was ˜8 mg/L with a purity […] as determined by Coomassie stain SDS-PAGE gel analysis. […] Protein was aliquoted and stored at −80° C. Using these assays, the IC50 values of the following compounds were determined.

[2] = system: MLKL phosphorylation in HT29-L23 human colorectal adenocarcinoma cells; assay: MLKL Phosphorylation High-Content Assay; type: cell-based; conditions: Homo sapiens, necroptosis induced with TNFα, SMAC mimetic and Z-VAD, 6 h, read-out: pMLKL (IC50)
Method: MLKL Phosphorylation High-Content Assay
HT29-L23 human colorectal adenocarcinoma cells were maintained in RPMI 1640 medium containing 10% heat-inactivated FBS, 1% Penicillin-Streptomycin and 10 mM HEPES. Cells were seeded at 2,000 cells/well in 384 well tissue culture-treated microplates (Greiner #781090-3B) and incubated at 37° C. (5% CO2/95% O2) for 2 d. On the day of the assay, the cells were treated with test compounds at final concentrations of 6.25 to 0.106 μM for 30 min at 37° C. (5% CO2/95% O2). Necroptopsis was induced using a mixture of human TNFα (35 ng/mL) (Peprotech #300-01A), SMAC mimetic (from US 2015/0322111 A1) (700 nM) and Z-VAD (140 nM) (BD pharmingen #51-6936). Following 6 h incubation at 37° C. (5% CO2/95% O2), the cells were fixed with 4% formaldehyde (ACROS 11969-0010) for 15 min at rt, then permeabilized with phosphate buffered saline (PBS) containing 0.2% Triton-X-100 for 10 min. MLKL phosphorylation was detected using anti-MLKL (phospho S358) antibody (Abcam #ab187091) (1:1000 dilution in Blocking Buffer [PBS supplemented with 0.1% BSA]) with ON incubation at 4° C. After washing three times in PBS, goat anti-rabbit Alexa-488 (1:1000 dilution) (Life Technologies, A1 1008) and Hoechst 33342 (Life Technologies, H3570) (1:2000 dilution) in Blocking Buffer were added for 1 h at rt. Following another three cycles of washes in PBS, the microplates were sealed, and cellular images were acquired in the Cellomics ArrayScan VTI high-content imager equipped with an X1 camera. Fluorescent images were taken using a 10× objective and the 386-23 BGRFRN_BGRFRN and 485-20 BGRFRN_BGRFRN filter sets, for nuclei and MLKL phosphorylation, respectively. The image sets were analyzed using the Compartmental Analysis Bioapplication software (Cellomics). The level of MLKL phosphorylation was quantified as MEAN_CircRingAvglntenRatio. The maximal inhibitory response was defined by the activity induced by Necls (CAS #: 852391-15-2, 6.25 μm). The IC50 value was defined as the concentration of compound that produces 50% of the maximal inhibition. The data were fitted using the 4-parameter logistic equation to calculate the IC50 and Ymax values.

| Compound | IC50 [1] [nM] | IC50 [2] [nM] |
| --- | --- | --- |
| CNC(=O)c1n[nH]c2cc(-c3csc(C(=O)NCc4cc(OC(F)(F)F)ccc4F)c3)ccc12 [Example 1, 6-(5-((2-fluoro-5-(trifluoromethoxy)benzyl)carbamoyl)thiophen-3-yl)-N-methyl-1H-indazole-3-carboxamide] | 6.8 | 21 |
| CNC(=O)c1n[nH]c2cc(-c3nc(C)c(C(=O)NC(C)c4cc(OC(F)(F)F)ccc4F)s3)ccc12 (centres unmarked) [Example 19, N-(1-(2-fluoro-5-(trifluoromethoxy)phenyl)ethyl)-4-methyl-2-(3-(methylcarbamoyl)-1H-indazol-6-yl)thiazole-5-carboxamide] | 13 | 19 |
| CNC(=O)c1n[nH]c2cc(-c3nc(C(=O)NCCC(C)c4ccccc4)cs3)ccc12 (centres unmarked) [Example 21, 2-(3-(methylcarbamoyl)-1H-indazol-6-yl)-N-(3-phenylbutyl)thiazole-4-carboxamide] | 170 | 810 |
| CNC(=O)c1n[nH]c2cc(-c3nc(C(=O)NCc4cc(OC(F)(F)F)ccc4F)c(C)n3C)ccc12 [Example 31, 6-(4-((2-fluoro-5-(trifluoromethoxy)benzyl)carbamoyl)-1,5-dimethyl-1H-imidazol-2-yl)-N-methyl-1H-indazole-3-carboxamide] | 66 | 600 |
| CNC(=O)c1n[nH]c2cc(-c3ccc(C(=O)NCC[C@H](O)c4ccc(Cl)cc4)s3)ccc12 [Example 8, (S)-6-(5-((3-(4-chlorophenyl)-3-hydroxypropyl)carbamoyl)thiophen-2-yl)-N-methyl-1H-indazole-3-carboxamide] | 220 | 6300 |
| CNC(=O)c1n[nH]c2cc(-c3ncc(C(=O)NCC[C@@H](O)c4ccc(Cl)cc4)s3)ccc12 [Example 25, (R)-N-(3-(4-chlorophenyl)-3-hydroxypropyl)-2-(3-(methylcarbamoyl)-1H-indazol-6-yl)thiazole-5-carboxamide] | 280 | 1600 |
| CNC(=O)c1n[nH]c2cc(-c3nc(C)c(C(=O)NCC[C@@H](O)c4ccc(Cl)cc4)s3)ccc12 [Example 16, (R)-N-(3-(4-chlorophenyl)-3-hydroxypropyl)-4-methyl-2-(3-(methylcarbamoyl)-1H-indazol-6-yl)thiazole-5-carboxamide] | 150 | 210 |
